This note sets out measurements from ChEMBL document CHEMBL4396940, “Synthesis and biological evaluation of 4-(piperid-3-yl)amino substituted 6-pyridylquinazolines as potent PI3Kδ inhibitors” (Bioorg Med Chem, 2019).

Assay [1] deals with T1, Phosphatidylinositol 4,5-bisphosphate 3-kinase catalytic subunit delta isoform (Homo sapiens, UniProt O00329).
T1 sequence (O00329 whole entry): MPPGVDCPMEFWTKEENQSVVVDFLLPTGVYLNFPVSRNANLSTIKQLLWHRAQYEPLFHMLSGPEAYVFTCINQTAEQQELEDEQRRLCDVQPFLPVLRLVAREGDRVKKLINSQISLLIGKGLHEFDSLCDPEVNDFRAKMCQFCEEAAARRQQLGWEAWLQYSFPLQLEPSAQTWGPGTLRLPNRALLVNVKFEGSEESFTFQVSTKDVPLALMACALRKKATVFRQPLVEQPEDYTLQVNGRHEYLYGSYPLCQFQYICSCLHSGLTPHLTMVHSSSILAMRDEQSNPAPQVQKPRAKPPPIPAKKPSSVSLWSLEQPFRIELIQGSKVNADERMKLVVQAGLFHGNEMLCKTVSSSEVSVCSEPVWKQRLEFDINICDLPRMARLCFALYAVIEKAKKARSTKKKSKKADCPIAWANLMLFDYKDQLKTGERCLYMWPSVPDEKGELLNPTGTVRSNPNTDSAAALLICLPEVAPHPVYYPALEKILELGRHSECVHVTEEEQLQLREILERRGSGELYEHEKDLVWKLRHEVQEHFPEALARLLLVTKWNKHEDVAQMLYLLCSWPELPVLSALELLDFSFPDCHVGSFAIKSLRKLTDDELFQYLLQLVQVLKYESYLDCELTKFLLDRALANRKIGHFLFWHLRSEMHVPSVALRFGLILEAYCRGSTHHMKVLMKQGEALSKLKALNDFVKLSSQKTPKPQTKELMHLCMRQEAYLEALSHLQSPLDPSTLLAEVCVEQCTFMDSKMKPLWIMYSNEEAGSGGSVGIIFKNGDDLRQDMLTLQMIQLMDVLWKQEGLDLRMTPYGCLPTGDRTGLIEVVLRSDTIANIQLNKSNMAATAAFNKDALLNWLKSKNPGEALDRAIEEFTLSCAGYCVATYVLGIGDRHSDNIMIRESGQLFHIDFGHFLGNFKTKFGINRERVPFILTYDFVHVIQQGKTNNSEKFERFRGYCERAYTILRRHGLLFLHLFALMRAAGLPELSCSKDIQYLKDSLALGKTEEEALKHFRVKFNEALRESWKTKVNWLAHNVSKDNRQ
Description: Inhibition of PI3K delta (unknown origin) using phosphatidyl inositol as substrate measured after 60 mins in presence of ATP by Kinase-Glo Plus reagent-based luminescence assay.

For assay [2], the system named is SU-DHL-6. Description: Antiproliferative activity against human SUDHL6 cells by MTT assay. It counts as functional, cell-based.
Assay [3] relates to Raji. Description: Antiproliferative activity against human Raji cells by MTT assay. It counts as functional, cell-based.
In assay [4] the test system is Ramos. As to the kind of experiment: Antiproliferative activity against human Ramos cells by MTT assay. Type of assay: functional, cell-based.
Assay [5] deals with HCT-116. Description: cells. The note with it: Homo sapiens.
Description: Antiproliferative activity against human HCT116 cells by MTT assay
Assay [6] concerns MCF7. As to the kind of experiment: cells. The settings on record: Homo sapiens.
Description: Antiproliferative activity against human MCF7 cells by MTT assay
For assay [7], the target named is Phosphatidylinositol 4,5-bisphosphate 3-kinase catalytic subunit beta isoform (Homo sapiens, UniProt P42338). As to the kind of experiment: Inhibition of PI3K beta (unknown origin) using phosphatidyl inositol as substrate measured after 60 mins in presence of ATP by Kinase-Glo Plus reagent-based luminescence assay. (In general: In Kinase-Glo more light means more ATP remaining.)
Phosphatidylinositol 4,5-bisphosphate 3-kinase catalytic subunit beta isoform, sequence (P42338 whole entry, canonical isoform): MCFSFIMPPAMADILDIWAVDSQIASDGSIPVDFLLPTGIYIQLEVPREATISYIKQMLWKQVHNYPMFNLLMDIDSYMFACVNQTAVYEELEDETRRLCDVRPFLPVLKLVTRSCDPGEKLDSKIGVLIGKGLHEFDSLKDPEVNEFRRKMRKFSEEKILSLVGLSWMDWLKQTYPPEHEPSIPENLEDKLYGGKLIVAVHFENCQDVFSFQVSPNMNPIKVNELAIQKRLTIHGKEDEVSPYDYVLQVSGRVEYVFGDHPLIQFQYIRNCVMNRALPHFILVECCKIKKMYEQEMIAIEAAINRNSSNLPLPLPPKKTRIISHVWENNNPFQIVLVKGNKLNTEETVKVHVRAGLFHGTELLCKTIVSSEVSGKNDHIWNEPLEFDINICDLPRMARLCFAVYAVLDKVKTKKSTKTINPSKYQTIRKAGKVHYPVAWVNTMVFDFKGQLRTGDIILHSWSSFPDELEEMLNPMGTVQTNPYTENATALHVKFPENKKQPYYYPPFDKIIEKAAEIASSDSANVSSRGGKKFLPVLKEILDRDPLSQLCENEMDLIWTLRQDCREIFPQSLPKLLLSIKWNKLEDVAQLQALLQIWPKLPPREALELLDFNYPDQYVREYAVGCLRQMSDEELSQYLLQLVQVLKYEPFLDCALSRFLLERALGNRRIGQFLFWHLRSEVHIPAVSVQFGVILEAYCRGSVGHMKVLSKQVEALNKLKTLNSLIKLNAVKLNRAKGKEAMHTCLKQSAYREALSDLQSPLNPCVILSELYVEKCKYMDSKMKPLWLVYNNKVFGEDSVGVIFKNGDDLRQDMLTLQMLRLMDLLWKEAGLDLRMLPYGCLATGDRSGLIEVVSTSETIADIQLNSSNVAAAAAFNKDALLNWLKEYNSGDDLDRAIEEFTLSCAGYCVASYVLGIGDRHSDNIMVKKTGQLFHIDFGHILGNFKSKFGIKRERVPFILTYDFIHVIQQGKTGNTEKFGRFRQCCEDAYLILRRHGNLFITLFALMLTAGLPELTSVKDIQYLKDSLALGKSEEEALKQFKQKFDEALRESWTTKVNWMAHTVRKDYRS

For assay [8], the target named is Phosphatidylinositol 4,5-bisphosphate 3-kinase catalytic subunit gamma isoform (Homo sapiens, UniProt P48736). As to the kind of experiment: Inhibition of PI3K gamma (unknown origin) using phosphatidyl inositol as substrate measured after 60 mins in presence of ATP by Kinase-Glo Plus reagent-based luminescence assay.
Phosphatidylinositol 4,5-bisphosphate 3-kinase catalytic subunit gamma isoform, sequence (P48736 whole entry, canonical isoform): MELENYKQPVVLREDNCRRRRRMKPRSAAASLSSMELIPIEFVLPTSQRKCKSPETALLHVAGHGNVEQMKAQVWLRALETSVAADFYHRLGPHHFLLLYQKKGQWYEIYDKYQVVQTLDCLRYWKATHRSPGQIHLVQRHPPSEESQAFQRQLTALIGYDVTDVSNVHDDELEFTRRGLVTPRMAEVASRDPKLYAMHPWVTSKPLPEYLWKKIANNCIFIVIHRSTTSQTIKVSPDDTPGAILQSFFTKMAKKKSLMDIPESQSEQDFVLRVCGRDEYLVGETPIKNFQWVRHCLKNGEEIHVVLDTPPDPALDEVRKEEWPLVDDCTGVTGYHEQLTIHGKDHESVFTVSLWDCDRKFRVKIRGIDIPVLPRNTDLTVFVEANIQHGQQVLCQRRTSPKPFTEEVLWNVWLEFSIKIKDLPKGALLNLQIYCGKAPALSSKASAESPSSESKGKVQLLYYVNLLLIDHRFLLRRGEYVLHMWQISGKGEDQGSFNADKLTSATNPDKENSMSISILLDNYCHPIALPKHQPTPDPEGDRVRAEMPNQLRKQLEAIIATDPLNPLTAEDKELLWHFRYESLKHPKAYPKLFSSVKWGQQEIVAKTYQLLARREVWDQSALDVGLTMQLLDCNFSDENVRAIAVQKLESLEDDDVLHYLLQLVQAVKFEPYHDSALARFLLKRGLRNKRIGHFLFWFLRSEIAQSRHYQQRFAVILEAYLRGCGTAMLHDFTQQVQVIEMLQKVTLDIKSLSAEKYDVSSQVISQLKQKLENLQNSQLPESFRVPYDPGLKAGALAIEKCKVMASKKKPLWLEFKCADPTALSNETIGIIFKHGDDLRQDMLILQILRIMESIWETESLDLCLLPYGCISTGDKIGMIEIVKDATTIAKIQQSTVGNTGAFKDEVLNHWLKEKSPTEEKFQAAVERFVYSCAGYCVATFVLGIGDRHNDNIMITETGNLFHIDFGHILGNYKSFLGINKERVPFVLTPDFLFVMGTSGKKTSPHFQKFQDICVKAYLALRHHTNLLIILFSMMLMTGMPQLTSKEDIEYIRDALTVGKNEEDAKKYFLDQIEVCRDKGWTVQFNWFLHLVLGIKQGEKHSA
In assay [9] the target is Phosphatidylinositol 4,5-bisphosphate 3-kinase catalytic subunit alpha isoform (Homo sapiens, UniProt P42336). As to the kind of experiment: Inhibition of PI3K alpha (unknown origin) using phosphatidyl inositol as substrate measured after 60 mins in presence of ATP by Kinase-Glo Plus reagent-based luminescence assay.
Phosphatidylinositol 4,5-bisphosphate 3-kinase catalytic subunit alpha isoform, sequence (P42336 whole entry, canonical isoform): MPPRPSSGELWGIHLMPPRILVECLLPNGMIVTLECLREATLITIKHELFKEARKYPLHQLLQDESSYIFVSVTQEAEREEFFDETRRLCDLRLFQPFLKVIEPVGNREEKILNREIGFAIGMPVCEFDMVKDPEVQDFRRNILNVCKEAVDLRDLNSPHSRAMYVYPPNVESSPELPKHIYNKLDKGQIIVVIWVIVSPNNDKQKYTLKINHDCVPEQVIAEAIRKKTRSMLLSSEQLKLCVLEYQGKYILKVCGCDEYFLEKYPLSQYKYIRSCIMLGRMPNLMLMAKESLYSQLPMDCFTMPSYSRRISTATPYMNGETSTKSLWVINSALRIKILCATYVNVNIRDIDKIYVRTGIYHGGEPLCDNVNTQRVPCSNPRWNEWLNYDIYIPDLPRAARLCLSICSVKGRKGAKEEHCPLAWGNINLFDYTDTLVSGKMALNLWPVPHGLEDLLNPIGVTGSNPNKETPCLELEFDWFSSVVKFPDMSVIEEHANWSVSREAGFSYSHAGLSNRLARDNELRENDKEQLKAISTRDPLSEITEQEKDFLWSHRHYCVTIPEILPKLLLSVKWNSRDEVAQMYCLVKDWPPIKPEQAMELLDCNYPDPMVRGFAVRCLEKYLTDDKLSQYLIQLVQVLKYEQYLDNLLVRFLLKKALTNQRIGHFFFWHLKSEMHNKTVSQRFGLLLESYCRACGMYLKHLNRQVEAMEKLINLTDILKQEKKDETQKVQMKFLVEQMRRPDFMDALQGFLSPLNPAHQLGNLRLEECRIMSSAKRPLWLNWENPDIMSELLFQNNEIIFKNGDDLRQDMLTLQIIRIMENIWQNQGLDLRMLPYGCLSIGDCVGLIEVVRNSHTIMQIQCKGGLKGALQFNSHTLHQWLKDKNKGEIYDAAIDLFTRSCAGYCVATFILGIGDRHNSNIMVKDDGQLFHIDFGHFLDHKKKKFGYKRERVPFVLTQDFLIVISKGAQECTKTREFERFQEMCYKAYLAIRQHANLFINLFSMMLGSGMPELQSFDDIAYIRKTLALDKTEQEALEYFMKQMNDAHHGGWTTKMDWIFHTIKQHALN
The target of assay [10] is T2, Phosphatidylinositol 4,5-bisphosphate 3-kinase catalytic subunit delta isoform (Homo sapiens) (UniProt O00329).
T2 sequence (whole entry): T1 sequence (O00329 whole entry)
As to the kind of experiment: Inhibition of PI3K delta in human SUDHL6 cells assessed as reduction in AKT phosphorylation at S473 measured after 8 hrs by Western blot analysis. Type of assay: cell-based. In general terms: A western blot detects proteins with antibodies after separation by electrophoresis.

Assay [11] addresses T1, Phosphatidylinositol 4,5-bisphosphate 3-kinase catalytic subunit delta isoform. As to the kind of experiment: Inhibition of PI3K delta (unknown origin).

One may read the IC50 as the concentration that inhibits the measured activity by half. For `COc1ncc(-c2ccc3ncnc(N[C@H]4CCCN(C(=O)C5CCN(C)CC5)C4)c3c2)cc1C#N`, the figures for the IC50 in assay [1] and in assay [2] were 9.4 nM and 420 nM, respectively.

For the compound `CCOC(=O)CN1CCC[C@H](Nc2ncnc3ccc(-c4cnc(OC)c(C#N)c4)cc23)C1`, the IC50 in assay [1] was 3.2 nM; in [2] it was 500 nM.

Turning to `COc1ncc(-c2ccc3ncnc(N[C@H]4CCCN(C(=O)C(F)(F)F)C4)c3c2)cc1C#N`, the IC50 in assay [1] amounted to 3.2 nM; in assay [2] it was 210 nM.

Consider `COc1ncc(-c2ccc3ncnc(N[C@H]4CCCN(C(=O)CCl)C4)c3c2)cc1C#N`, for which the values for the IC50 in [1] and in assay [2] were 8.9 nM and 380 nM, respectively.

With `CC[C@H](Nc1ncnc2[nH]cnc12)c1nc2cccc(F)c2c(=O)n1-c1ccccc1` [IDELALISIB], the IC50 was above 10000 nM in assay [3]; above 10000 nM in [4]; above 10000 nM in assay [5]; above 10000 nM in assay [6]; 33 nM in assay [2].

As to `COc1ncc(-c2ccc3ncnc(N[C@H]4CCCN(C(=O)CN(C)C)C4)c3c2)cc1C#N`, the 50% inhibitory concentration (IC50) in [3] was above 10000 nM; in assay [1] it was 1.3 nM; in [4], above 10000 nM; in assay [5] it was above 10000 nM; in [6], above 10000 nM; in assay [2] it was 160 nM. The IC50 in assay [7] was 150 nM; in [8], 250 nM; in assay [9], 21.8 nM.

On to `COc1ncc(-c2ccc3ncnc(N[C@H]4CCCN(C(=O)CCBr)C4)c3c2)cc1C#N`, for which the IC50 came out at 14.3 nM in [1] and 15 nM in assay [2].

`CCOC(=O)CN1CCC[C@H](Nc2ncnc3ccc(-c4cnc(OC)c(C(F)(F)F)c4)cc23)C1`: the values for the half-maximal inhibitory concentration (IC50) in assay [1] and in assay [2] were 6.8 nM and 230 nM, respectively.

For `COc1ncc(-c2ccc3ncnc(N[C@H]4CCCN(CCO)C4)c3c2)cc1C#N`, the results for the half-maximal inhibitory concentration (IC50) in assay [1] and in [2] were 4.7 nM and 2050 nM, respectively.

Regarding `COc1ncc(-c2ccc3ncnc(N[C@H]4CCCN(C(=O)c5cccnc5)C4)c3c2)cc1C#N`, the half-inhibitory concentration (IC50) is above 10000 nM in assay [3]; 0.7 nM in assay [1]; above 10000 nM in [4]; above 10000 nM in [5]; above 10000 nM in assay [6]; 120 nM in [2]. The IC50 stood at 9.1 nM in [7], 2 nM in [8] and 120 nM in assay [9]. Moreover, in assay [10], the inhibition entry is “Dose-dependent effect”.

`COc1ncc(-c2ccc3ncnc(O[C@H]4CCN(C(=O)C5CCOCC5)C4)c3c2)cc1C#N` displayed a half-inhibitory concentration (IC50) in assay [11] of 4.9 nM.

As for `COc1ncc(-c2ccc3ncnc(N[C@H]4CCCN(C(=O)[C@H](C)N)C4)c3c2)cc1C#N`, the IC50 in assay [3] is above 10000 nM; in [1], 3.7 nM; in assay [4], above 10000 nM; in [5] it was above 10000 nM; in [6] it was above 10000 nM; in assay [2], 440 nM. Further, the 50% inhibitory concentration (IC50) in assay [7] worked out at 147 nM; in assay [8], 211 nM; in assay [9] it was 18.2 nM.

In the case of `COc1ncc(-c2ccc3ncnc(N[C@H]4CCCN(C(=O)C(F)(F)F)C4)c3c2)cc1[N+](=O)[O-]`, the values for the IC50 in assay [1] and in [2] were 27 nM and 127000 nM, respectively.

Regarding `Cn1c(=O)n(-c2ccc(C(C)(C)C#N)cc2)c2c3cc(-c4cnc5ccccc5c4)ccc3ncc21` [DACTOLISIB], the IC50 amounted to 520 nM in [3], 400 nM in [4], 300 nM in assay [5] and 200 nM in assay [6].

`COc1ncc(-c2ccc3ncnc(N[C@H]4CCCN(C(=O)C5CCNCC5)C4)c3c2)cc1C#N`: the IC50 in [1] is 2.5 nM; in assay [2] it was 2440 nM.

As to `COc1ncc(-c2ccc3ncnc(N[C@H]4CCCN(C(=O)C5CCOCC5)C4)c3c2)cc1C#N`, the IC50 is 7.7 nM in [1] and 150 nM in [2].
